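Method: 48-hour compound exposure of cells in 96-well plates, five concentrations, linear interpolation of endpoints. Here, GI50 denotes the concentration required for 50% inhibition of growth.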 The source made the active and inactive calls. Rule as the data show it: active = GI50 up to about 1.1 µM and inactive = higher.

The values that follow come from ChEMBL document CHEMBL1201862, “PubChem BioAssay data set” (2004).

Some test systems named below: NCI-H226; SW-620; SNB-19; HCC 2998; SR; Malme-3M; HCT-15; COLO 205; M14; TK-10; RPMI-8226; UO-31; MDA-MB-231; MDA-N; SK-OV-3; IGROV-1; UACC-62; PC-3.
Common to all, as to assay: NCI anticancer screen, dose series, 48 h

For `CC1=NN(C(=O)Cc2ccccc2)C(=O)/C1=C\c1ccco1`, the GI50 with NCI-H226, in the assay with SW-620, in the assay with SNB-19, with HCC 2998, with SR and with Malme-3M was > 100 µM (inactive) in each case. For the same compound, the GI50 in the assay with HCT-15 was more than 100 µM; in the assay with COLO 205, > 100 µM (inactive); in the assay on M14 it was > 100 µM (inactive); in the assay on TK-10, > 100 µM (inactive); with RPMI-8226, > 100 µM (inactive); with UO-31 it was > 100 µM (inactive).

Turning to `O=C1/C(=N/c2ccc(Nc3ccccc3)cc2)Oc2ccccc21`, the GI50 in the assay with NCI-H226 is 3.31 µM (inactive); in the assay on SW-620, 2.36 µM (inactive); in the assay with SNB-19, 2.36 µM (inactive); with HCC 2998, 8.26 µM (inactive); in the assay with MDA-MB-231, 2.27 µM (inactive); in the assay on MDA-N, 2.74 µM (inactive). Further, the GI50 is 2.15 µM (inactive) in the assay on SR; 2.99 µM (inactive) in the assay on Malme-3M; 5.98 µM (inactive) in the assay with SK-OV-3; 3.06 µM (inactive) in the assay on IGROV-1; 3.3 µM in the assay on HCT-15; 3.28 µM (inactive) in the assay on UACC-62. Besides, the GI50 was 1.65 µM (inactive) with COLO 205; 2.33 µM (inactive) with M14; 2.81 µM (inactive) with PC-3; 3.84 µM (inactive) in the assay with TK-10; 2.35 µM (inactive) with UO-31.

Take `O=C(c1ccc(Cl)cc1Cl)N(C(=O)N1CCC(c2ccccc2)CC1)c1ccccc1`: the GI50 is > 100 µM (inactive) in the assay with NCI-H226; > 100 µM (inactive) in the assay with SW-620; > 100 µM (inactive) in the assay with SNB-19; > 100 µM (inactive) in the assay with HCC 2998; 24.3 µM (inactive) in the assay on SR; > 100 µM (inactive) with SK-OV-3. Besides, the GI50 in the assay with IGROV-1 is 92.9 µM (inactive); in the assay on HCT-15 it was more than 100 µM; with UACC-62 it was 79.4 µM (inactive); in the assay with COLO 205, 43.3 µM (inactive); in the assay on M14, > 100 µM (inactive); in the assay with PC-3, 91.2 µM (inactive). The figures for the GI50 with RPMI-8226 and in the assay with UO-31 were 47.9 µM (inactive) and > 100 µM (inactive), respectively.

Turning to `CN(C)CCNC(=O)c1cccc2c1nc(-c1ccncc1)c1ccccc12`, the GI50 in the assay on NCI-H226 was 1.95 µM (inactive); in the assay on SW-620 it was 1.11 µM (active); in the assay on SNB-19 it was 3.94 µM (inactive); in the assay with HCC 2998, 2.6 µM (inactive); with SK-OV-3 it was 5.71 µM (inactive); in the assay on IGROV-1 it was 1.02 µM (active). In addition, the GI50 is 1.99 µM in the assay on HCT-15; 1.88 µM (inactive) with UACC-62; 1.61 µM (inactive) in the assay with COLO 205; 4.83 µM (inactive) in the assay with M14; 2.21 µM (inactive) with TK-10; 1.63 µM (inactive) in the assay with UO-31.

With `COc1cc(C2c3cc4c(cc3OC(Nc3ccccc3)C2C)OCO4)cc(OC)c1O` (stereo unspecified), the GI50 in the assay with NCI-H226 is 19.6 µM (inactive); with SW-620 it was 3.37 µM (inactive); in the assay on SNB-19, 10.6 µM (inactive); in the assay on HCC 2998 it was 4.12 µM (inactive); in the assay with MDA-MB-231, 4.33 µM (inactive); in the assay on MDA-N, 1.18 µM (inactive). Moreover, the GI50 in the assay on Malme-3M was 5.47 µM (inactive); with IGROV-1 it was 4.55 µM (inactive); in the assay with HCT-15, 3.02 µM; in the assay with UACC-62 it was 3.66 µM (inactive); in the assay with COLO 205, 11.3 µM (inactive); in the assay with M14 it was 15.5 µM (inactive). Moreover, the GI50 with PC-3 is 2.8 µM (inactive); in the assay with TK-10 it was 3.49 µM (inactive); in the assay on RPMI-8226 it was 3.69 µM (inactive); in the assay on UO-31 it was 8.38 µM (inactive).
